Measurements taken from PubChem BioAssay (NCI).
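How tested: cells in 96-well plates exposed to compound for 48 hours at five concentrations. Abbreviation: GI50, concentration required for 50% inhibition of growth. TGI denotes the concentration required for complete inhibition of growth.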 *1 amine or outer side, *2 acyl side, *3 side chain or, on linkers, in order; H or OH if unused. Where a SMILES comes first, the peptide text is derived from it. Bridges are numbered along the chain shown (N, C = ends). Roman numbers before positions name the chains, in order. [ ]: non-standard residue; d: D form. Actinocin(9to1) = Cc1c2oc3c(C)ccc(C(=O)[*:1])c3nc-2c(C(=O)[*:2])c(N)c1=O; NMeV = CN[CH](C(=O)O)C(C)C; Sar = CNCC(=O)O

Experiments:
Assay in all cases: NCI anticancer screen, dose series, 48 h
LOX IMVI melanoma = system: LOX IMVI melanoma
NCI-H460 lung = system: NCI-H460 lung
SF-539 CNS = system: SF-539 CNS
KM12 colon = system: KM12 colon
OVCAR-3 ovarian = system: OVCAR-3 ovarian
NCI-H522 lung = system: NCI-H522 lung
MDA-N = system: MDA-N
HOP-62 NSCLC = system: HOP-62 NSCLC
SNB-75 CNS = system: SNB-75 CNS
UO-31 renal = system: UO-31 renal

Structure (SMILES) | TGI (LOX IMVI melanoma) [µM] | TGI (NCI-H460 lung) [µM] | TGI (SF-539 CNS) [µM] | TGI (KM12 colon) [µM] | TGI (OVCAR-3 ovarian) [µM] | TGI (NCI-H522 lung) [µM] | TGI (MDA-N) [µM] | TGI (HOP-62 NSCLC) [µM] | TGI (SNB-75 CNS) [µM] | TGI (UO-31 renal) [µM] | GI50 (OVCAR-3 ovarian) [µM] | GI50 (NCI-H522 lung) [µM]
COc1cccc(OC/C(N=Cc2ccncc2)=N/NC(=O)c2ccncc2)c1 | > 100 | > 100 | > 100 | > 100 | > 100 | > 100 | > 100 | > 100 | – | – | – | –
CCOc1ccccc1N=NC1C(=O)N(C(=O)CC(=O)Nc2ccccc2OC)N=C1C (stereo not given) | > 100 | > 100 | > 100 | > 100 | > 100 | > 100 | > 100 | 39.4 | 42.1 | 68.2 | – | –
O=C1/C(=C(/Br)I)c2ccccc2-c2ccccc21 | 12.2 | 41.2 | 28.7 | 32 | 24.6 | 5.27 | 9.78 | 36.6 | 29.7 | 6.2 | – | –
Cc1sc2nc3n(sc4nc5sc(C)c(C)c5c(=O)n43)c(=O)c2c1C | > 100 | > 100 | > 100 | > 100 | > 100 | 32 | > 100 | – | 43.4 | > 100 | – | –
C=C1CC(Cn2cc(Br)c(=O)[nH]c2=O)(c2ccc(Br)cc2)OC1=O (stereo not given) | 3.64 | 35.6 | 23.7 | > 38.7 | > 35 | 3.19 | 7.46 | 31 | 26.7 | 27.1 | – | –
CCOC(=O)COC1=Nc2cc(OC)c(OC)c3nc(Cl)cc(c23)C1=O | 4.23 | 39.3 | 3.87 | 28.6 | – | 3.25 | 2.63 | 7.97 | 5.87 | 4.13 | – | –
CC(=O)OCC1(CNc2nc(N)ncc2C#N)CC(CCc2ccccc2)C1 (stereo not given) | > 100 | > 100 | > 100 | > 100 | – | > 100 | > 100 | > 100 | > 100 | > 100 | – | –
CCC(C)C(NC(=O)C1CCCN1)C(=O)NC(C(=O)NCC(=O)NC(CC(N)=O)C(=O)NC(CC(C)C)C(=O)NC(CC(C)C)C(=O)NC(CCCCN)C(N)=O)C(C)C (stereo not given) (H-PIVGNLLK-NH2; configuration not given here) | > 75 | – | > 75 | > 75 | > 75 | > 75 | > 75 | > 75 | – | > 75 | – | –
COc1ccc(/C=N/N=C(\N)NO)c(OC)c1OC | > 100 | > 100 | 61.7 | 52.9 | 67.3 | > 100 | > 100 | > 100 | – | 91.9 | – | –
CCC(=O)Nc1ccc(N2C(=O)/C(=C/c3ccc(O)c(OC)c3)N=C2c2ccccc2)cc1 | > 100 | > 100 | > 100 | > 100 | > 100 | > 100 | > 100 | > 100 | > 100 | > 100 | – | –
C=C(C)[C@@H]1CC[C@]2(C(=O)OC3OC(COC4OC(CO)C(OC5OC(C)C(O)C(O)C5O)C(O)C4O)C(O)C(O)C3O)CC[C@]3(C)[C@H](CC[C@@H]4[C@@]5(C)CC[C@H](O)[C@@](C)(CO)[C@@H]5CC[C@]43C)[C@@H]12 (stereo not given in full) | > 8.27 | 5.11 | > 7.72 | > 10 | 5.16 | 9.56 | > 10 | > 10 | > 10 | > 10 | – | –
O=C1Sc2cc3ccccc3cc2C(=O)Sc2cc3ccccc3cc21 | 48.1 | > 100 | > 100 | > 100 | > 63.5 | 41.5 | > 100 | > 85.2 | > 100 | 37.1 | – | –
O=C1/C(=C/c2cccs2)N=C(c2ccccc2)N1c1nc2ccccc2s1 | > 100 | > 100 | > 100 | > 100 | > 100 | 17.3 | > 100 | > 100 | – | > 100 | – | –
Cc1c2oc3c(C)ccc(C(=O)NC4C(=O)NC(Cc5ccc(O)cc5)C(=O)N5CCCC5C(=O)N(C)CC(=O)N(C)C(C(C)C)C(=O)OC4C)c3nc-2c(C(=O)NC2C(=O)NC(Cc3ccc(O)cc3)C(=O)N3CCCC3C(=O)N(C)CC(=O)N(C)C(C(C)C)C(=O)OC2C)c(N)c1=O (stereo not given) (I: TYP[Sar][NMeV] / II: TYP[Sar][NMeV]; ester I:1-I:C, II:1-II:C; linker I:N-II:N via Actinocin(9to1); configuration not given here) | 19.9 | > 100 | > 100 | > 100 | > 48.1 | 45.8 | > 100 | > 52.2 | 20.3 | > 61.4 | – | –
CN1CCCC(OC(=O)c2cc3cc(CCl)ccc3oc2=O)C1 (stereo not given) | 34.3 | 44.9 | > 100 | 68.3 | 37.8 | 34.7 | 46 | 67.7 | 52.8 | 32.5 | – | –
OCC1c2ccccc2-n2nc(-c3ccccc3)c(O)c21 (stereo not given) | 47 | 77.2 | > 100 | 46.1 | 79.2 | 48.7 | > 100 | > 100 | > 100 | 92.4 | – | –
C#Cc1cccc(Nc2ncnc3cc(OCCOC)c(OCCOC)cc23)c1 | > 100 | > 91.4 | 81 | > 100 | > 100 | 27.1 | > 100 | 59.7 | 46.7 | 74.5 | 3.53 | 0.901
Cn1cnc(/C=C/C#N)c1 | – | > 100 | > 100 | > 100 | > 100 | > 100 | > 100 | > 100 | > 100 | > 100 | – | –
CC(=O)NCC1OC2COC(c3ccccc3)OC2C2N=C(c3ccccc3)OC12 (stereo not given) | > 100 | > 100 | > 100 | > 100 | > 100 | – | > 100 | > 100 | > 100 | > 100 | – | –
CC(C)Oc1cc2c(cc1O)CC[C@@H]1[C@@H]2CC[C@]2(C)[C@@H](O)CC[C@@H]12 | 18.3 | 14.4 | 6.93 | 16.5 | 12 | 6.75 | 3.6 | 18.1 | 53.1 | 46.6 | – | –
Clc1ccc(Cc2nc3ccccc3nc2-c2cccc(Cl)c2)cc1 | 3.58 | 37.8 | 4.92 | 16.5 | 17.4 | 3.41 | 5.64 | 38.1 | – | 3.32 | – | –
